The structures appear in SMILES notation. The source made the active and inactive calls. The calls are words filed in the database; no cut-off is given here.

Test [1] concerns Bacillus subtilis. The experiment in a line: Antibacterial activity against Bacillus subtilis MTCC 121 at 100 ug/ml by cup plate method. Type of test: functional. To be noted: read-out: DIZ.
For test [2], the system named is Bacillus subtilis. The experiment in a line: Antibacterial activity against Bacillus subtilis MTCC 121 by cup plate method. Format: functional, organism-based.
For test [3], the system named is Escherichia coli. The experiment in a line: Antibacterial activity against Escherichia coli MTCC 739 at 300 ug/ml by cup-plate method. Type of test: functional. To be noted: read-out: DIZ.
The test system of test [4] is Escherichia coli. The experiment in a line: Antibacterial activity against Escherichia coli MTCC 739 at 50 ug/ml by cup-plate method. Format: functional. To be noted: read-out: DIZ.
Test [5] relates to Pseudomonas aeruginosa. The experiment in a line: Antibacterial activity against Pseudomonas aeruginosa MTCC 2453 at 200 ug/ml by cup-plate method. Format: functional. To be noted: read-out: DIZ.
The next test relates to Candida albicans. The experiment in a line: Antifungal activity against Candida albicans MTCC 227 at 50 to 300 ug/ml by cup-plate method. Type of test: functional, organism-based.
The subject of test [6] is Escherichia coli. The experiment in a line: Antibacterial activity against Escherichia coli MTCC 739 at 100 ug/ml by cup-plate method. Type of test: functional. To be noted: read-out: DIZ.
The test system of test [7] is Staphylococcus aureus. The experiment in a line: Antibacterial activity against Staphylococcus aureus MTCC 96 at 300 ug/ml by cup-plate method. Type of test: functional. To be noted: read-out: DIZ.
In test [8] the test system is Pseudomonas aeruginosa. The experiment in a line: Antibacterial activity against Pseudomonas aeruginosa MTCC 2453 at 50 ug/ml by cup-plate method. To be noted: read-out: DIZ. Type of test: functional.
The subject of test [9] is Bacillus subtilis. The experiment in a line: Antibacterial activity against Bacillus subtilis MTCC 121 at 50 ug/ml by cup plate method. Format: functional. To be noted: read-out: DIZ.
The subject of test [10] is Bacillus subtilis. The experiment in a line: Antibacterial activity against Bacillus subtilis MTCC 121 at 200 ug/ml by cup plate method. Type of test: functional. To be noted: read-out: DIZ.
Test [11] relates to Pseudomonas aeruginosa. The experiment in a line: Antibacterial activity against Pseudomonas aeruginosa MTCC 2453 by cup-plate method. Format: functional, organism-based.
Test [12] deals with Staphylococcus aureus. The experiment in a line: Antibacterial activity against Staphylococcus aureus MTCC 96 at 50 ug/ml by cup-plate method. To be noted: read-out: DIZ. Type of test: functional.
Test [13] has as its system Staphylococcus aureus. The experiment in a line: Antibacterial activity against Staphylococcus aureus MTCC 96 at 200 ug/ml by cup-plate method. To be noted: read-out: DIZ. Format: functional.
Test [14] relates to Escherichia coli. The experiment in a line: Antibacterial activity against Escherichia coli MTCC 739 by cup-plate method. Type of test: functional, organism-based.
Test [15] concerns Pseudomonas aeruginosa. The experiment in a line: Antibacterial activity against Pseudomonas aeruginosa MTCC 2453 at 100 ug/ml by cup-plate method. To be noted: read-out: DIZ. Type of test: functional.
Test [16] concerns Staphylococcus aureus. The experiment in a line: Antibacterial activity against Staphylococcus aureus MTCC 96 by cup-plate method. Format: functional, organism-based.
Test [17] relates to Bacillus subtilis. The experiment in a line: Antibacterial activity against Bacillus subtilis MTCC 121 at 300 ug/ml by cup plate method. Type of test: functional. To be noted: read-out: DIZ.
The test system of test [18] is Escherichia coli. The experiment in a line: Antibacterial activity against Escherichia coli MTCC 739 at 200 ug/ml by cup-plate method. To be noted: read-out: DIZ. Format: functional.
Test [19] deals with Pseudomonas aeruginosa. The experiment in a line: Antibacterial activity against Pseudomonas aeruginosa MTCC 2453 at 300 ug/ml by cup-plate method. To be noted: read-out: DIZ. Type of test: functional.
For test [20], the system named is Staphylococcus aureus. The experiment in a line: Antibacterial activity against Staphylococcus aureus MTCC 96 at 100 ug/ml by cup-plate method. Type of test: functional. To be noted: read-out: DIZ.

On to `O=C1N/C(=N\c2ccc(Cl)cc2)S/C1=C\c1ccc(O)cc1`, for which the zone of inhibition at 100 µg/mL in the test on Bacillus subtilis [1] stood at 7 mm; in the test on Escherichia coli [6] it was 7 mm; in the test with Pseudomonas aeruginosa [15], 8 mm; in the test with Staphylococcus aureus [20], 7 mm. The Activity entry in the test with Bacillus subtilis [2], with Pseudomonas aeruginosa [11], with Escherichia coli [14] and in the test on Staphylococcus aureus [16] was “Dose-dependent effect” each time. In addition, the zone of inhibition at 300 µg/mL came to 8 mm in the test on Escherichia coli [3], 8 mm in the test on Staphylococcus aureus [7], 8 mm with Bacillus subtilis [17] and 9 mm in the test with Pseudomonas aeruginosa [19]. Moreover, the zone of inhibition at 50 µg/mL in the test on Escherichia coli [4] is 7 mm; in the test on Pseudomonas aeruginosa [8], 7 mm; in the test with Bacillus subtilis [9] it was 6 mm; in the test on Staphylococcus aureus [12] it was 6 mm. The zone of inhibition at 200 µg/mL in the test with Pseudomonas aeruginosa [5] was 8 mm; in the test on Bacillus subtilis [10], 7 mm; in the test on Staphylococcus aureus [13], 7 mm; in the test on Escherichia coli [18] it was 8 mm. The result in the test on Candida albicans was inactive.
For the compound `O=C1N/C(=N\c2ccc(Cl)cc2)S/C1=C\c1ccccc1`, the zone of inhibition at 100 µg/mL in the test with Bacillus subtilis [1], in the test with Escherichia coli [6], in the test with Pseudomonas aeruginosa [15] and in the test on Staphylococcus aureus [20] was 8 mm throughout. For the same compound, the Activity entry with Bacillus subtilis [2], in the test with Pseudomonas aeruginosa [11], in the test with Escherichia coli [14] and in the test on Staphylococcus aureus [16] was “Dose-dependent effect” throughout. In addition, the zone of inhibition at 300 µg/mL with Escherichia coli [3] was found to be 12 mm; in the test with Staphylococcus aureus [7] it was 10 mm; in the test on Bacillus subtilis [17] it was 10 mm; in the test on Pseudomonas aeruginosa [19], 11 mm. Besides, the zone of inhibition at 50 µg/mL is 7 mm with Escherichia coli [4], 8 mm with Pseudomonas aeruginosa [8], 5 mm with Bacillus subtilis [9] and 5 mm in the test on Staphylococcus aureus [12]. The zone of inhibition at 200 µg/mL in the test with Pseudomonas aeruginosa [5] was 8 mm; in the test on Bacillus subtilis [10] it was 9 mm; in the test on Staphylococcus aureus [13] it was 9 mm; in the test with Escherichia coli [18] it was 10 mm. Further, in the test on Candida albicans, the result was inactive.
Consider `O=C1N/C(=N\c2cccc(Cl)c2)S/C1=C\c1ccccc1`, for which the zone of inhibition at 100 µg/mL in the test with Bacillus subtilis [1], in the test on Escherichia coli [6], with Pseudomonas aeruginosa [15] and with Staphylococcus aureus [20] was 7 mm each time. In addition, the Activity result in the test with Bacillus subtilis [2], with Pseudomonas aeruginosa [11], in the test with Escherichia coli [14] and in the test with Staphylococcus aureus [16] was “Dose-dependent effect” in each case. Moreover, the zone of inhibition at 300 µg/mL in the test on Escherichia coli [3] worked out at 8 mm; in the test on Staphylococcus aureus [7], 9 mm; with Bacillus subtilis [17] it was 7 mm; in the test on Pseudomonas aeruginosa [19], 9 mm. In addition, the zone of inhibition at 50 µg/mL in the test on Escherichia coli [4] stood at 7 mm; in the test on Pseudomonas aeruginosa [8], 6 mm; in the test on Bacillus subtilis [9] it was 6 mm; with Staphylococcus aureus [12] it was 6 mm. Besides, the zone of inhibition at 200 µg/mL in the test with Pseudomonas aeruginosa [5] was 8 mm; with Bacillus subtilis [10], 7 mm; in the test with Staphylococcus aureus [13], 8 mm; in the test on Escherichia coli [18], 7 mm. Also, the result in the test on Candida albicans was inactive.
In the case of `COc1cc(/C=C2\S/C(=N/c3cccc(Cl)c3)NC2=O)ccc1O`, the zone of inhibition at 100 µg/mL in the test with Bacillus subtilis [1] was 8 mm; in the test with Escherichia coli [6], 8 mm; with Pseudomonas aeruginosa [15], 8 mm; in the test on Staphylococcus aureus [20], 7 mm. Besides, the Activity result in the test with Bacillus subtilis [2], in the test on Pseudomonas aeruginosa [11], in the test with Escherichia coli [14] and with Staphylococcus aureus [16] was “Dose-dependent effect” each time. Further, the zone of inhibition at 300 µg/mL turned out to be 9 mm in the test with Escherichia coli [3], 8 mm with Staphylococcus aureus [7], 9 mm in the test on Bacillus subtilis [17] and 9 mm with Pseudomonas aeruginosa [19]. The zone of inhibition at 50 µg/mL came out at 7 mm with Escherichia coli [4], 6 mm in the test with Pseudomonas aeruginosa [8], 7 mm in the test with Bacillus subtilis [9] and 6 mm in the test on Staphylococcus aureus [12]. The zone of inhibition at 200 µg/mL worked out at 9 mm with Pseudomonas aeruginosa [5], 8 mm in the test with Bacillus subtilis [10], 8 mm in the test on Staphylococcus aureus [13] and 9 mm in the test with Escherichia coli [18]. For the same compound, in the test on Candida albicans, the outcome was inactive.
Take `O=C1N/C(=N\c2cccc(Cl)c2)S/C1=C\c1ccccc1Cl`: the zone of inhibition at 100 µg/mL turned out to be 8 mm in the test on Bacillus subtilis [1], 7 mm with Escherichia coli [6], 7 mm in the test with Pseudomonas aeruginosa [15] and 8 mm in the test with Staphylococcus aureus [20]. Also, the Activity result in the test with Bacillus subtilis [2], in the test with Pseudomonas aeruginosa [11], in the test with Escherichia coli [14] and in the test on Staphylococcus aureus [16] was “Dose-dependent effect” each time. In addition, the zone of inhibition at 300 µg/mL came out at 8 mm in the test with Escherichia coli [3], 9 mm with Staphylococcus aureus [7], 9 mm with Bacillus subtilis [17] and 8 mm in the test on Pseudomonas aeruginosa [19]. For the same compound, the zone of inhibition at 50 µg/mL with Escherichia coli [4] was 7 mm; in the test on Pseudomonas aeruginosa [8] it was 6 mm; in the test with Bacillus subtilis [9] it was 7 mm; with Staphylococcus aureus [12] it was 7 mm. Also, the zone of inhibition at 200 µg/mL with Pseudomonas aeruginosa [5] was determined as 7 mm; with Bacillus subtilis [10] it was 8 mm; in the test with Staphylococcus aureus [13], 8 mm; in the test with Escherichia coli [18], 8 mm. In addition, in the test with Candida albicans, the result was inactive.
For `O=C1N/C(=N\c2cccc(Cl)c2)S/C1=C\c1ccc(O)cc1`, the zone of inhibition at 100 µg/mL in the test on Bacillus subtilis [1] amounted to 7 mm; in the test on Escherichia coli [6], 7 mm; with Pseudomonas aeruginosa [15], 8 mm; in the test on Staphylococcus aureus [20], 9 mm. Also, the Activity entry in the test with Bacillus subtilis [2], in the test with Pseudomonas aeruginosa [11], in the test on Escherichia coli [14] and in the test with Staphylococcus aureus [16] was “Dose-dependent effect” in each case. Besides, the zone of inhibition at 300 µg/mL in the test on Escherichia coli [3] was determined as 9 mm; in the test on Staphylococcus aureus [7] it was 10 mm; in the test with Bacillus subtilis [17] it was 9 mm; in the test on Pseudomonas aeruginosa [19], 10 mm. The zone of inhibition at 50 µg/mL in the test on Escherichia coli [4] amounted to 7 mm; with Pseudomonas aeruginosa [8], 7 mm; in the test with Bacillus subtilis [9], 6 mm; in the test with Staphylococcus aureus [12], 8 mm. The zone of inhibition at 200 µg/mL was 9 mm with Pseudomonas aeruginosa [5], 8 mm in the test with Bacillus subtilis [10], 9 mm in the test with Staphylococcus aureus [13] and 8 mm in the test on Escherichia coli [18]. For the same compound, the result in the test on Candida albicans was inactive.

For the origin of these results see ChEMBL document CHEMBL3044899, “Effect of chloro and fluoro groups on the antimicrobial activity of 2,5-disubstituted 4-thiazolidinones: a comparative study” (2012).
